We go through 37 compounds from patent publication US12528818B2, “Compositions and methods for inhibition of RAS” (Leidos Biomedical Research, Inc., priority 2021, dated 2026).

Molecules are shown by their SMILES. A value given as a limit tells only on which side of the number the result lay.

In one test the test system is pERK in NCI-H358 cells. As to the kind of experiment: Cell-based pERK HTRF assay (pERK inhibition in H358 cells). The following applies: Homo sapiens, NCI-H358, 0.5 h, pERK inhibition IC50, NCI-H358 cells, 30 min incubation; read-out: PERK in H358 cell. Here is the method:
On Day 1, cells (NCI-H358) were seeded into 96-well plates at 4×10^4 cells/well in complete growth media (RPMI, 10% FBS).
The source plate was created with compounds diluted in media at 5-fold the final assay concentration. […] 20 μL was transferred onto the cell plates (final volume in wells was 100 μL). Plates were harvested after 30 min incubation by aspirating media and adding kit-supplied 1× supplemented lysis buffer to all wells (75 μl per well). Plates were then placed on a plate shaker and incubated at 850 rpm for an additional 30 min.
Antibody mixture solution was prepared by diluting aliquoted d2 and Eu Cryptate antibodies 1:20 in kit supplied detection buffer, then mixed the diluted antibodies solutions (1:1 v:v).
Samples were homogenized by pipetting up and down and then transferred (16 μL of cell lysates) from the 96-well cell culture plate to two wells of the HTRF 384-well detection plate containing the antibody solution. Plates were centrifuged (524 g for 1 min) and allowed to incubate between 4 and 24 h at room temperature. Maximum signal is reached after 4 h incubation time and remains stable over a period of 24 hours. Therefore, readings can be made between 4 and 24 h of incubation.
On the technique in general: Time-resolved FRET reads energy transfer from a long-lived donor to a nearby acceptor.
As for `C=CC(=O)N1CC[C@@H](N(C)c2c(C#N)c(OC[C@@]34CCCN3C[C@H](F)C4)nc3c(F)c(-c4ccc(F)c5sc(N)nc45)c(Cl)cc23)C1` (atropisomer, axis not shown) [Compound 234], the IC50 is above 1 µM.
Still for that read-out and setting: then `CC#CC(=O)N1CCN(c2nc(OCC34CCCN3CC(F)(F)C4)nc3c(F)c(-c4ccc(F)c5sc(N)nc45)c(C(F)(F)F)cc23)CC1` (stereo not shown) [Compound 193], with above 1 µM.
The same measure, in the same setting: in the case of `C=CC(=O)N1CC[C@@H](N(C)c2nc(OC[C@@]34CCCN3C[C@H](F)C4)nc3c(F)c(-c4ccc(F)c5sc(N)nc45)c(C(F)(F)F)cc23)C1` [Compound 198] it was below 0.1 µM; in that of `CN1CCC[C@H]1COc1nc(NC2CCCN(C#N)C2)c2cc(Cl)c(-c3ccc(F)c4sc(N)nc34)c(F)c2n1` (stereo partly shown) [Compound 53], above 1 µM.
As to `C=CC(=O)N1C[C@H](C)N(c2nc(OC[C@@]34CCCN3C[C@H](F)C4)nc3c(F)c(-c4ccc(F)c5sc(N)nc45)c(C#N)cc23)C[C@H]1C` [Compound 326], the IC50 is below 0.1 µM.
Still for that read-out and setting: then `C=CC(=O)N1CC(N(C)c2nc(OCC34CCCN3CCC4)nc3c(F)c(-c4ccc(F)c5sc(N)nc45)c(Cl)cc23)C1` [Compound 84, 1-(3-((7-(2-amino-7-fluorobenzo[d]thiazol-4-yl)-6-chloro-8-fluoro-2-((tetrahydro-1H-pyrrolizin-7a(5H)-yl)methoxy)quinazolin-4-yl)(methyl)amino)azetidin-1-yl)prop-2-en-1-one], with 0.1 to 1 µM; and `C=CC(=O)N1CC[C@@H](N(CC)c2nc(OC[C@@]34CCCN3C[C@H](F)C4)nc3c(F)c(-c4ccc(F)c5sc(N)c(C#N)c45)c(C(F)(F)F)cc23)[C@H]1C` [Compound 403], with below 0.1 µM.
Take `C=CC(=O)N1CC(Nc2nc(OC[C@@H]3CCCN3C)nc3c(F)c(-c4ccc(F)c5sc(N)nc45)c(Cl)cc23)C1` [Compound 23, 1-(3-((7-(2-amino-7-fluorobenzo[d]thiazol-4-yl)-6-chloro-8-fluoro-2-(((S)-1-methylpyrrolidin-2-yl)methoxy)quinazolin-4-yl)amino)azetidin-1-yl)prop-2-en-1-one]: the IC50 was above 1 µM.
In the case of `C=CC(=O)N1CCN(c2ncnc3c(F)c(-c4ccc(F)c5sc(N)nc45)c(CC#N)cc23)CC1` [Compound 72], the IC50 was above 1 µM.
As for `C=CC(=O)N1CCN(c2nc(OC[C@@H]3CCCN3C)nc3c(F)c(-c4ccc(F)c5sc(N)nc45)c(Cl)cc23)CC1` [Compound 44], the IC50 is below 0.1 µM.
Same read-out and setting: in the case of `C=CC(=O)N1CCN(c2nc(OC[C@@]34CCCN3C[C@H](F)C4)nc3c(F)c(-c4ccc(F)c5sc(N)c(C#N)c45)c(C(F)(F)F)cc23)CC1` [Compound 345] it was below 0.1 µM; in that of `N#CN1CC(Nc2nc(OCC34CCCN3CCC4)nc3c(F)c(-c4ccc(F)c5sc(N)nc45)c(Cl)cc23)C1` [Compound 58], 0.1 to 1 µM; in that of `C=CC(=O)N1CCN(c2nc(OCC34CCCN3CCC4)nc3c(F)c(-c4ccc(F)c5sc(N)nc45)c(C(F)F)cc23)CC1` [Compound 246], 0.1 to 1 µM.
`C=CC(=O)N1CCC(N(C)c2nc(OC[C@@H]3C[C@@H](F)CN3C)nc3cc(-c4ccc(F)c5sc(N)c(C#N)c45)c(C#N)cc23)[C@H]1COC` (stereo partly shown) [Compound 444]: the IC50 was below 0.1 µM.
Still for that read-out and setting: in the case of `C=CC(=O)N1CC[C@@H](N(C)c2nc(OC[C@@]34CCCN3C[C@H](F)C4)nc3c(F)c(-c4ccc(F)c5sc(N)c(C#N)c45)c(C(F)(F)F)cc23)[C@H]1CF` [Compound 337] it was below 0.1 µM.
With `C=CC(=O)N1CCN(c2nc(OC[C@@H]3CCCN3CC(F)F)nc3c(F)c(-c4ccc(F)c5sc(N)nc45)c(C(F)(F)F)cc23)CC1` [Compound 156], the IC50 was below 0.1 µM.
`CC#CC(=O)N1CC(N(C)c2nc(OC[C@@H]3CCCN3C)nc3c(F)c(-c4ccc(F)c5sc(N)nc45)c(C(F)(F)F)cc23)C1` [Compound 129]: the IC50 fell in the range of 0.1 to 1 µM.
Same read-out and setting: then `CC#CC(=O)N1CCN(c2nc(OCC34CCCN3CCC4)nc3c(F)c(-c4ccc(F)c5sc(N)nc45)c(C(F)(F)F)cc23)CC1` [Compound 134], with 0.1 to 1 µM.
On the same count and under the same terms, then `C=CC(=O)N1CCN(c2nc(OC[C@@]34CCCN3C[C@H](F)C4)nc3c(F)c(-c4ccc(F)c5sc(N)nc45)c(C(F)(F)F)cc23)[C@@H](C)C1` [Compound 189], with below 0.1 µM; and `C=CC(=O)N1CC[C@@H](N(C)c2nc(OC[C@@]34CCCN3C[C@H](F)C4)nc3c(F)c(-c4ccc(F)c5sc(N)c(C#N)c45)c(C#N)cc23)C1` [Compound 325], with below 0.1 µM; and `C=CC(=O)N1C[C@H](C)N(c2nc(OC[C@]34CCCN3C[C@H](OC)C4)nc3c(F)c(-c4ccc(F)c5sc(N)nc45)c(C(F)(F)F)cc23)C[C@H]1C` [Compound 269], with below 0.1 µM.
On the same count and under the same terms, then `C=CC(=O)N1C[C@H](C)N(c2nc(OCC34CCCN3CCC4)nc3c(F)c(-c4ccc(F)c5sc(N)c(C#N)c45)c(Cl)cc23)C[C@H]1C` [Compound 366], with below 0.1 µM; and `C=CC(=O)N1CC(N(c2nc(OCC34CCCN3CCC4)nc3c(F)c(-c4ccc(F)c5sc(N)nc45)c(Cl)cc23)C2CC2)C1` [Compound 151], with above 1 µM.
Regarding `C=CC(=O)N1CCC(N(C)c2nc(OC[C@@]34CCCN3C[C@H](F)C4)nc3c(C#N)c(-c4ccc(F)c5sc(N)c(C#N)c45)c(Cl)cc23)[C@H]1C` (stereo partly drawn) [Compound 388, 4-((1-acryloyl-2-methylpyrrolidin-3-yl)(methyl)amino)-7-(2-amino-3-cyano-7-fluorobenzo[b]thiophen-4-yl)-6-chloro-2-(((2R,7aS)-2-fluorotetrahydro-1H-pyrrolizin-7a(5H)-yl)methoxy)quinazoline-8-carbonitrile], the IC50 was below 0.1 µM.
Consider `C=CC(=O)N1CCC(N(C)c2nc(OC[C@@]34CCCN3C[C@H](OC)C4)nc3c(F)c(-c4ccc(F)c5sc(N)c(C#N)c45)c(C(F)(F)F)cc23)[C@H]1C` (stereo partly shown) [Compound 476], for which the IC50 is below 0.1 µM.
On the same count and under the same terms, then `C=CC(=O)N1CC(N(c2nc(OC[C@]34CCCN3C[C@H](F)C4)nc3c(F)c(-c4ccc(F)c5sc(N)nc45)c(C(F)(F)F)cc23)C2CC2)C1` [Compound 178, 1-(3-((7-(2-amino-7-fluorobenzo[d]thiazol-4-yl)-8-fluoro-2-(((2R,7aR)-2-fluorotetrahydro-1H-pyrrolizin-7a(5H)-yl)methoxy)-6-(trifluoromethyl)quinazolin-4-yl)(cyclopropyl)amino)azetidin-1-yl)prop-2-en-1-one], with 0.1 to 1 µM; and `C=CC(=O)N1C[C@@H](F)[C@@H](N(CC)c2nc(OC[C@@]34CCCN3C[C@H](F)C4)nc3c(F)c(-c4ccc(F)c5sc(N)c(C#N)c45)c(Cl)cc23)C1` [Compound 368], with below 0.1 µM.
The same measure, in the same setting: then `C=CC(=O)N1CC[C@@H](N(C)c2nc(OC[C@@]34CCCN3C[C@H](F)C4)nc3c(F)c(-c4ccc(F)c5sc(N)c(C#N)c45)ccc23)C1` [Compound 311], with below 0.1 µM.
On the same count and under the same terms, in the case of `C=CC(=O)NCCNc1nc(C2CCN(C)CC2)nc2c(F)c(-c3ccc(F)c4sc(N)nc34)c(Cl)cc12` [Compound 64] it was above 1 µM; in that of `C=CC(=O)N1C[C@H](C)N(c2nc(OC[C@@]34CCCN3C[C@H](F)C4)nc3cc(-c4c(F)cc(F)c5sc(N)nc45)c(C(F)(F)F)cc23)C[C@H]1C` [Compound 298, 1-((2R,5S)-4-(7-(2-amino-5,7-difluorobenzo[d]thiazol-4-yl)-2-(((2R,7aS)-2-fluorotetrahydro-1H-pyrrolizin-7a(5H)-yl)methoxy)-6-(trifluoromethyl)quinazolin-4-yl)-2,5-dimethylpiperazin-1-yl)prop-2-en-1-one], below 0.1 µM.
Consider `CC#CC(=O)N1CCN(c2nc(OC[C@@H]3CC(F)(F)CN3C)nc3c(F)c(-c4ccc(F)c5sc(N)nc45)c(C(F)(F)F)cc23)CC1` [Compound 132], for which the IC50 was above 1 µM.
In the case of `C=CC(=O)N1CC(N(c2nc(OCC34CCCN3CCC4)nc3c(F)c(-c4ccc(F)c5sc(N)nc45)c(C(F)(F)F)cc23)C2CC2)C1` [Compound 152], the IC50 was above 1 µM.
In the case of `C=C(F)C(=O)N1CC[C@@H](N(C)c2nc(OC[C@@]34CCCN3C[C@H](F)C4)nc3c(F)c(-c4ccc(F)c5sc(N)nc45)c(C(F)(F)F)cc23)C1` [Compound 308], the IC50 is below 0.1 µM.
As to `C=CC(=O)N1CC[C@@H](N(C)c2nc(OC[C@@]34CCCN3C[C@H](F)C4)nc3c(F)c(-c4ccc(F)c5sc(N)c(C#N)c45)c(F)cc23)C1` [Compound 343], the IC50 was below 0.1 µM.
Turning to `C=CC(=O)N1C[C@@H](F)[C@@H](N(CC)c2nc(OC[C@@]34CCCN3C[C@H](F)C4)nc3c(C#N)c(-c4ccc(F)c5sc(N)c(C#N)c45)c(Cl)cc23)C1` [Compound 380], the IC50 is below 0.1 µM.
Still for that read-out and setting: in the case of `C=CC(=O)N1CC[C@@H](N(C)c2nc(OC[C@@]34CCCN3C[C@H](F)C4)nc3c(F)c(-c4ccc(F)c5sc(N)nc45)c(OC(F)(F)F)cc23)C1` [Compound 238, 1-((3R)-3-((7-(2-amino-7-fluorobenzo[d]thiazol-4-yl)-8-fluoro-2-(((2R,7aS)-2-fluorotetrahydro-1H-pyrrolizin-7a(5H)-yl)methoxy)-6-(trifluoromethoxy)quinazolin-4-yl)(methyl)amino)pyrrolidin-1-yl)prop-2-en-1-one] it was 0.1 to 1 µM.

The same test, now with this note: pERK inhibition IC50, NCI-H358 cells, 30 min incubation; read-out: PERK in H358 cell.
In the case of `C=CC(=O)N1C[C@H](N(C)c2ncnc3c(F)c(-c4ccc(F)c5sc(N)nc45)c(C(F)(F)F)cc23)C[C@H]1C` (atropisomer, axis not shown) [Compound 250], the IC50 is 0.1 to 1 µM.
